Measurements published in PubChem BioAssay (NCI).
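1) Cells in 96-well plates. 2) Compound, 48 h, 5 concentrations. 3) Linear interpolation between surrounding doses. 4) Unreached endpoint = highest concentration. Definition used: TGI = concentration required for complete inhibition of growth.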

Columns and labels:
Assay in all cases: NCI anticancer screen, dose series, 48 h
DU-145 prostate = test system: DU-145 prostate
SK-MEL-2 melanoma = test system: SK-MEL-2 melanoma
K-562 leukemia = test system: K-562 leukemia
UACC-257 melanoma = test system: UACC-257 melanoma
NCI-H23 lung = test system: NCI-H23 lung
SNB-19 CNS = test system: SNB-19 CNS
U251 CNS = test system: U251 CNS
HCC-2998 colon = test system: HCC-2998 colon
OVCAR-3 ovarian = test system: OVCAR-3 ovarian
OVCAR-8 ovarian = test system: OVCAR-8 ovarian
A498 renal = test system: A498 renal
SK-OV-3 ovarian = test system: SK-OV-3 ovarian

SMILES	TGI (DU-145 prostate) [µM]	TGI (SK-MEL-2 melanoma) [µM]	TGI (K-562 leukemia) [µM]	TGI (UACC-257 melanoma) [µM]	TGI (NCI-H23 lung) [µM]	TGI (SNB-19 CNS) [µM]	TGI (U251 CNS) [µM]	TGI (HCC-2998 colon) [µM]	TGI (OVCAR-3 ovarian) [µM]	TGI (OVCAR-8 ovarian) [µM]	TGI (A498 renal) [µM]	TGI (SK-OV-3 ovarian) [µM]
FC(F)(F)c1ccc(Cc2nc3cc4ccccc4cc3[nH]2)cc1	> 100	> 100	> 100	> 100	> 100	> 100	> 100	> 100	> 100	> 100	> 100	
CCCCNc1nc2ccccc2c2c1ncn2CC(C)C	> 100	> 100	> 100	> 100	> 100	> 100	> 100	> 100	> 100	> 100	> 100	> 100
CCc1c(CN)c(CC)c(CNC2=NCCN2)c(CC)c1CNC1=NCCN1	> 100	> 100	> 100	> 100	> 100	> 100	> 100	> 100	> 100	> 100	> 100	> 100
O=c1[nH]nc(Cc2ccc(Cl)cc2)n1/N=C/c1ccco1	> 100	> 100	> 100	> 100	> 100	78.4	> 100	> 100	> 100	> 100	> 100	> 100
CC(C)(C)c1cc(-c2cc(C(C)(C)C)[nH]n2)n[nH]1	> 100	> 100	> 100	> 100	> 100	> 100	> 100	> 100	> 100		> 100	> 100
COc1ccc(CC2C3=C(CCN2C(=O)C2CCC2)CC2(CC3)OCCO2)cc1O (configuration not stated)	61.6	> 100	84.4	> 100	44.6	> 100	> 100	> 100	35.4	> 100	> 100	88.1
Cc1sc2[nH]c(=O)oc(=O)c2c1C	> 100	> 100	> 100	> 100	> 100	> 100	> 100	> 100	> 100	> 100	> 100	> 100
O=[N+]([O-])c1ccc2nc(Cl)n[n+]([O-])c2c1	31.7	29.2	2.74	29.3	36.6	> 61.5	31.3	30.3	21.9	30.7	21.2	31.4
COc1cc(/C=C2/SC(c3ccccc3)N(Cc3ccccc3)C2=O)cc(OC)c1OC (configuration not stated)	> 100	> 100	> 100	> 100	> 100	> 100	> 100	> 100	> 100	> 100	> 100	> 100
O=C1NC(=S)N/C1=C\c1cc2c(=O)c3ccccc3sc2s1	> 100	> 100	> 100	> 100	> 100	> 100	> 100	> 100	> 100	> 100	> 100	
O=C(NC(Cl)(C(F)(F)F)C(F)(F)F)c1ccc(F)cc1	> 100	> 100	> 100	> 100	> 100	> 100	> 100	> 100	> 100	> 100	> 100	> 100
O=C(O)CSCc1cc2c(O)c(c1)Cc1cc(CSCC(=O)O)cc(c1O)Cc1cc(CSCC(=O)O)cc(c1O)Cc1cc(CSCC(=O)O)cc(c1O)C2	> 100	> 100	> 100	> 100	> 100	> 100	> 100	> 100	> 100	> 100	> 100	> 100
COC(=O)CCC(C)[C@H]1CCC2C3C(C[C@H](OC(C)=O)[C@@]21C)[C@@]1(C)CCC2(C[C@H]1C[C@H]3OC(C)=O)OOC1(CCCC1)OO2 (some centres not stated)	> 100	> 100	> 100	> 100	> 100	> 100	> 100	> 100	> 100	> 100	> 100	> 100
O=[N+]([O-])c1ccc(-c2cc(O)c3nc4ccccc4n3c2)cc1	> 100	> 100	> 100	> 100	> 100	> 100	> 100	> 100	> 100	> 100	> 100	> 100
Cc1ccc(S(=O)(=O)N2CCN(S(=O)(=O)c3ccc(C)cc3)CCN(S(=O)(=O)c3ccc(C)cc3)Cc3cc(C#N)c(C#N)cc3CN(S(=O)(=O)c3ccc(C)cc3)CC2)cc1	> 100		> 100	> 100	> 100	> 100	> 100	> 100	> 100	> 100	58.2	> 100
CCOc1ccc2nc3nc(=O)[nH]c(C)c3c(NCCCN(CC)CC)c2c1	> 100	> 100	> 100	> 100	> 100	> 100	> 100	> 100	> 100	> 100	> 100	> 100
CCOP(=O)(C=C=C1CCC2[C@@H]3CCc4cc(OC)ccc4C3CC[C@]12C)OCC (some centres not stated)	30	26.5	10.7	19.6	20.8	28.3	25.5	25.2	24.2	29.3	25.9	31.8
N#CC(N)c1ccc(OCCCCCCCCCCOc2ccc(C(N)C#N)cc2)cc1 (configuration not stated)	> 100	> 100	> 100	> 100	> 100	> 100	> 100	> 100	> 100	> 100	> 100	> 100
